From patent publication US6586365B2, “Method for reducing pest damage to corn by treating transgenic corn seeds with clothianidin pesticide” (priority 2000, dated 2003)
Read-outs that look alike come from different tables or passages of the source.

System: western and northern corn root worm
Assay type: in vivo, corn rootworm
Settings: for PERCENT OF CONTROL (3-6 damage level) / PERCENT OF CONTROL (4-6 damage level) / PERCENT OF CONTROL (5-6 damage level) / PERCENT PLANTS HAVING 3-6 DAMAGE LEVEL / PERCENT PLANTS HAVING 4-6 DAMAGE LEVEL / PERCENT PLANTS HAVING 5-6 DAMAGE LEVEL: Iowa 1-6 Scale; for Corn root worm damage (Iowa 1-6 scale), means across locations / Corn root worm damage in each Iowa class (Iowa 1-6 scale): class 1 / Corn root worm damage in each Iowa class (Iowa 1-6 scale): class 2 / Corn root worm damage in each Iowa class (Iowa 1-6 scale): class 3 / Corn root worm damage in each Iowa class (Iowa 1-6 scale): class 4 / Corn root worm damage in each Iowa class (Iowa 1-6 scale): class 5 / Corn root worm damage in each Iowa class (Iowa 1-6 scale): class 6: stage VT-R1
Method: Corn seeds of the same hybrid species, with and without the transgenic event, were treated with clothianidin pesticide as follows. A seed treatment formulation was prepared by mixing a measured amount of clothianidin in water as a carrier and applying the formulation for one minute at room temperature to a measured weight of corn seed in a rotostatic seed treater. The respective weights of the pesticide preparation and the corn seed were calculated to provide the desired rate of treatment of pesticide on the seed. The pesticide was mixed into sufficient water to permit efficient distribution of the formulation to all of the seeds in the batch while minimizing loss of treatment formulation due to lack of uptake of the formulation by the seeds. Treated seeds were allowed to sit uncapped for at least four hours before planting.
A field trial was run in accordance with pertinent protocols and in conformance with USDA notification requirements. The purpose of the trial was to determine the efficacy of transgenic event Cry3Bb.11231 in corn seed in combination with corn rootworm seed treatments using clothianidin.
For each growing site that was selected, the plot design included the following:
The following seed treatment combinations were used for each growing area:
All seed treatments with pesticides were carried out as described in Example 1.
For seeds having treatments numbered 3 though 7, the pesticides were applied by the methods described in Example 1. In seed treatment number 8, commercially available Force® 3G was applied to the soil in a 5″ band at the time of sowing. The levels of application are as shown and are within the ranges recommended for standard commercial practice.
Corn seeds to be tested were planted and grown at five different locations across two Midwestern states in the United States corn belt according to the protocol described above.
The determination of damage by corn rootworm was made according to the following protocol. At stage VT-R1, an evaluation of corn rootworm damage was carried out by methods that are well known in the industry, and damage by corn rootworm was reported according to the Iowa 1-6 rating system. In that system, the root systems of 10 corn plants per plot are recovered and scored using the 1-6 rating scale, where: 1=no injury or only a few minor feeding scars, 2=feeding injury evident, but no roots eaten back to 1 ½ inches of the plant, 3=at least one root eaten off to within 1 ½ inches of the plant, but never an entire node of roots destroyed, 4=one node of roots eaten back to within 1 ½ inches of the plant, 5=two nodes (circles) of roots eaten back to within 1 ½ inches of the plant, 6=three nodes (circles) of roots eaten back to within 1 ½ inches of the plant.
The combinations of clothianidin seed treatment with corn seed having a Cry3Bb.11231 transgenic event were tested for possible synergy at three levels of rootworm damage. In the first test, shown in Table 2(a), the percentage of test plants having damage levels of from 3 to 6, on the Iowa 1-6 Scale, were determined for the control and for seeds treated with the pesticide at two levels, and for seeds having the transgenic event, alone and in combination. The following formula was then used to calculate a “synergy threshold”:
(% of control Cry3Bb.11231)*(% of control clothianidin treatment)/100.
This threshold was compared against the percent of control for the treatment combinations (i.e., Cry3Bb.11231 with clothianidin @ 100 gm/100 kg and Cry3Bb.11231 with clothianidin @ 300 gm/100 kg). If the treatment combination percent of control was below the threshold, then it was concluded that there was synergy.

[1] = clothianidin seed treatment @ 100 g/100 kg seed
[2] = clothianidin seed treatment @ 300 g/100 kg seed
[3] = clothianidin seed treatment @ 400 g/100 kg seed

CN/C(=N\[N+](=O)[O-])NCc1cnc(Cl)s1 [Clothianidin, N-[(2-chloro-5-thiazoyl)methyl]-N′-methyl-N″-nitro,[C(E)]-(9Cl)-guanidine]
PERCENT OF CONTROL (3-6 damage level) (clothianidin @ 100 gm/100 kg): 96.6%
PERCENT OF CONTROL (4-6 damage level) (clothianidin @ 100 gm/100 kg): 86.9%
PERCENT OF CONTROL (5-6 damage level) (clothianidin @ 100 gm/100 kg): 39.4%
PERCENT PLANTS HAVING 3-6 DAMAGE LEVEL (clothianidin @ 100 gm/100 kg): 96.6%
PERCENT PLANTS HAVING 4-6 DAMAGE LEVEL (clothianidin @ 100 gm/100 kg): 71.2%
PERCENT PLANTS HAVING 5-6 DAMAGE LEVEL (clothianidin @ 100 gm/100 kg): 15.8%
PERCENT OF CONTROL (3-6 damage level) (clothianidin @ 300 gm/100 kg): 91.5%
PERCENT OF CONTROL (4-6 damage level) (clothianidin @ 300 gm/100 kg): 50.65%
PERCENT OF CONTROL (5-6 damage level) (clothianidin @ 300 gm/100 kg): 23.9%
PERCENT PLANTS HAVING 3-6 DAMAGE LEVEL (clothianidin @ 300 gm/100 kg): 91.5%
PERCENT PLANTS HAVING 4-6 DAMAGE LEVEL (clothianidin @ 300 gm/100 kg): 41.5%
PERCENT PLANTS HAVING 5-6 DAMAGE LEVEL (clothianidin @ 300 gm/100 kg): 9.6%
Corn root worm damage (Iowa 1-6 scale), means across locations [1]: 3.9
Corn root worm damage in each Iowa class (Iowa 1-6 scale): class 1 [1]: 0
Corn root worm damage in each Iowa class (Iowa 1-6 scale): class 2 [1]: 6
Corn root worm damage in each Iowa class (Iowa 1-6 scale): class 3 [1]: 45
Corn root worm damage in each Iowa class (Iowa 1-6 scale): class 4 [1]: 98
Corn root worm damage in each Iowa class (Iowa 1-6 scale): class 5 [1]: 23
Corn root worm damage in each Iowa class (Iowa 1-6 scale): class 6 [1]: 5
Corn root worm damage (Iowa 1-6 scale), means across locations [2]: 3.4
Corn root worm damage in each Iowa class (Iowa 1-6 scale): class 1 [2]: 0
Corn root worm damage in each Iowa class (Iowa 1-6 scale): class 2 [2]: 16
Corn root worm damage in each Iowa class (Iowa 1-6 scale): class 3 [2]: 94
Corn root worm damage in each Iowa class (Iowa 1-6 scale): class 4 [2]: 60
Corn root worm damage in each Iowa class (Iowa 1-6 scale): class 5 [2]: 16
Corn root worm damage in each Iowa class (Iowa 1-6 scale): class 6 [2]: 2
Corn root worm damage (Iowa 1-6 scale), means across locations [3]: 3.0
Corn root worm damage in each Iowa class (Iowa 1-6 scale): class 1 [3]: 1
Corn root worm damage in each Iowa class (Iowa 1-6 scale): class 2 [3]: 34
Corn root worm damage in each Iowa class (Iowa 1-6 scale): class 3 [3]: 113
Corn root worm damage in each Iowa class (Iowa 1-6 scale): class 4 [3]: 37
Corn root worm damage in each Iowa class (Iowa 1-6 scale): class 5 [3]: 1
Corn root worm damage in each Iowa class (Iowa 1-6 scale): class 6 [3]: 0
effectiveness against corn rootworm damage (in words) (seed treatment alone, all levels tested (100, 300, 400 gm/100 kg)): effective against corn rootworm damage at all levels tested
